Data on one compound can be found in patent US20160038521A1, “THERAPEUTIC METHODS” (UNIVERSITY OF IOWA RESEARCH FOUNDATION, priority 2013, published 2016).

“Also recorded” adds a separate entry of the source.

Data set [1] deals with caveolin-1. As to the kind of experiment: Caveolin-1 transport to the cell membrane, immunofluorescence. Particulars: CLN3−/− MBEC, 25 μM for 2 h. Format: cell-based, mouse. As to the method:
FIG. 6. Carbenoxolone restores caveolin-1 transport to the cell membrane in CLN3-null JNCL mouse brain endothelial cells. CLN3-expressing (CLN3-R) and CLN3-null (CLN3−/−) MBEC were untreated or cultured with 25 μM carbenoxolone for 2 h, then immunofluorescently stained for caveolin-1. Without treatment, caveolin-1 transport to the plasma membrane is impaired in CLN3−/− MBEC. Carbenoxolone restores normal caveolin-1 trafficking to the plasma membrane.

The test system of data set [2] is Cdc42. The experiment in a line: Cdc42 activity (Cdc42-GTP levels) in mouse brain endothelial cells. Format: cell-based. Particulars: for Cdc42 activity: CLN3−/− MBEC, p<0.05. The text has this: FIGS. 2A and 2B. Carbenoxolone reduces Cdc42 activity in CLN3-null JNCL mouse brain endothelial cells (MBEC). […] FIG. 3: CBX corrects Cdc42-GTP levels. […] Data represent the mean of three independent experiments, error bars±SEM (1-way ANOVA with TUKEY post-hoc, (*, p<0.05, n.s.=not significant).

In data set [3] the test system is plasma membrane cholesterol. As to the kind of experiment: Cholesterol distribution at the plasma membrane, Amplex Red Cholesterol assay. It is filed as cell-based, mouse. Particulars: CBX 25 μM for 2 hours vs mock. As to the method: Plasma membranes are detergent-free fractionated and cholesterol levels in each fraction are quantified by the Amplex Red® Cholesterol assay kit. A representative experiment from four independent experiments is shown with CBX 25 μM for 2 hours or mock treatment.

For data set [4] the following is noted: Leshchenko et al., 2006; cited from earlier work.
The test system of data set [5] is Cln3−/− mice. The experiment in a line: Autofluorescent inclusions in cingulate cortex brain sections. It is filed as in vivo, mouse. The conditions noted are these: gavage 20 mg/kg daily for two weeks, p<0.05. The source says: FIG. 11: CBX treatment reduces Cln3^−/− autofluorescent inclusions. Thin (50 μm) brain sections from mice treated as in were imaged under low magnification in the red channel to detect autofluorescence. Four images were taken of each cingulate cortex, and fluorescence intensity averaged in ImageJ. Data represent a minimum of 4 mice per group. Error bars±SEM (1-way ANOVA with TUKEY post-hoc, *, p<0.05) Scale bar=200 μm.

The test system of data set [6] is Cln3−/− MBECs. The experiment in a line: Fluid-phase endocytosis, uptake of fluorescent dextran. It is filed as cell-based, mouse. Particulars: 25 μM CBX for 30 minutes. The procedure: FIG. 5. Correction of fluid-phase endocytosis by CBX. Hoechst 33342 to label DNA (blue) and saline (mock) or 25 μM CBX was added to cell culture media for 30 minutes. Fluid-phase endocytic uptake in the presence of CBX or PBS was determined by uptake of fluorescent dextran (green). Extracellular dextran was quenched by Red-40 and cells were imaged by epifluorescence. ImageJ was used to calculate fluorescence intensity. Data represent the mean of three independent experiments, error bars±SEM (1-way ANOVA with TUKEY post-hoc, ***, p<0.0001). Scale bar=10 μm.

The test system of data set [7] is CLN3-null JNCL mouse brain endothelial cells. The experiment in a line: Scratch wound cell migration, live cell microscopy. It is filed as cell-based. The conditions noted are these: CLN3−/− MBEC, CBX vs mock, overnight. The procedure: FIG. 4. Carbenoxolone normalizes migration of CLN3-null JNCL mouse brain endothelial cells. Cell migration induced by a scratch in cell monolayers was measured using live cell microscopy and quantified by T-Scratch software. CLN3-expressing (CLN3-R) and CLN3-null (CLN3-/-) MBEC were grown to confluence. A gap in the monolayer was made by “[…] wound”, and the rate of cell migration to fill in the gap was monitored by live cell microscopy. CLN3-/- MBEC show a delayed ability to fill in the gap. Carbenoxolone treatment corrects this defect. Cells were either treated with CBX or left untreated (mock) in the presence or absence of CBX. Data are collected overnight. Data represent the mean of three independent experiments, error bars±SEM (2-way ANOVA with Bonferroni post-hoc correction, *, p<0.05).

Regarding `CC1(C)[C@@H](OC(=O)CCC(=O)O)CC[C@]2(C)[C@H]3C(=O)C=C4[C@@H]5C[C@@](C)(C(=O)O)CC[C@]5(C)CC[C@@]4(C)[C@]3(C)CC[C@@H]12` [CBX, carbenoxolone], in data set [1], the “Caveolin-1 transport to the plasma membrane” value is given as “restores”. In data set [2] (CLN3-R (CLN3-expressing) MBEC, CBX 50 μM for 2 h), the Cdc42 activity level result is on record as “does not alter”. Besides, the Cdc42 activity result in data set [2] (CBX 50 μM for 2 h) is given as “effectively normalized”; in data set [2] (CBX 50 μM for 2 h, listed as Carbenoxolone), “significantly reduces”. Moreover, the Cdc42-GTP levels result in data set [2] (Cln3−/− MBECs, CBX 25 μM for 2 hours vs saline (mock)) is given as “corrects; also recorded: reduces”. In addition, the “Cholesterol distribution at the plasma membrane” value in data set [3] was “corrects cholesterol distribution”. Also, the “Ability to pass the blood-brain barrier (BBB)” value in data set [4] is on record as “little or no ability”. The “Autofluorescent inclusions (fluorescence intensity, cingulate cortex)” value in data set [5] is recorded as “reduces”. In data set [6], the “Fluid-phase endocytosis (fluorescent dextran uptake)” value is “Correction; also recorded: increases fluid-phase endocytosis”. For the same compound, the entries for the “Cell migration (rate of filling scratch gap)” value in data set [7] and in data set [7] (listed as Carbenoxolone) were “increases cell migration” and “normalizes”, respectively.
